The values below come from patent US20050226821A1, “Cosmetic formulations containing l-arginine oligomers” (priority 2002, published 2005).

In one test the test system is human subjects. Nature of the test: Topical lip color and contour enhancement, image analysis of lip area after lip gloss application. It counts as in vivo. The conditions noted are these: mean across 1, 5, 10, 15 and 30 minutes after application, Revlon Lip Gloss base. The procedure: A preparation of (L-arg)-(L-arg)-(L-arg)-(L-arg)-(L-arg)-(L-arg)-(L-arg)-(L-arg)-(L-arg) or [LR9] was obtained from Sigma Genosys at >70% purity. […], a 1× stock of LR9 for lip enhancement was prepared as 35 mg in 50 μl pbs, which was added to 2.0 ml of Revlon Lip Gloss base for the following groups: • LR9 • Control (base only)
After addition of LR9 to lip gloss base, samples were mixed to homogeneity and stored at room temperature overnight. After baseline image acquisition using a Minolta Dimage 7 digital camera set to 105 macro (1:1) with standard lighting and scaling conditions, human subjects underwent topical application of LR9 or control gloss. All participants were blinded with respect to treatment or control application. Additional digital micrographs were acquired at time 0, 1, 5, 10, 15, and 30 minutes after lip gloss application. The gloss was then removed and participants asked to record duration of any lip contour or color changes. Additionally, any complications (irritation, etc) were also tracked for each. Each subject was treated at different timepoints with both groups (treatment or control). Image analysis of total photographic area was performed for each group, with care taken to normalize each to scales included at the time of photograph acquisition. Baseline images (pre-application) were verified to have statistically similar values between pre-LR9 gloss and pre-base gloss applications for each participant. Mean and standard error across timepoints 1, 5, 10, 15, and 30 minutes were determined for each participant after LR9-gloss or base gloss application. Values for each as well as photos acquired at matching timepoints are presented by participant below for 3 participants. [drawing]

Another test relates to C57 black six mice. Nature of the test: Topical enhancement of hair growth after depilation, daily application for 14 days. Further details: key to Hair Shaft Length, Comparison anova (95) vs. control / Follicle Area, Comparison anova (95) vs. control / Number of follicles per cross-section, Comparison anova (95) vs. control: **: significant by fisher PLSD and Scheffe F-test (P = 0.0001). It is filed as in vivo. The procedure:
A preparation of (L-arg)-(L-arg)-(L-arg)-(L-arg)-(L-arg)-(L-arg)-(L-arg)-(L-arg)-(L-arg) or [LR9] was obtained from Sigma Genosys at >70% purity. To achieve a therapeutic benefit on hair growth, a 10× stock of LR9 was prepared as 70 mg in 80 μl PBS. To 0.2 ml of Cetaphil moisturizer base was added the following: • LR9: 20 μl of 10× LR9 stock • Control: 20 μl PBS
After addition of LR9/PBS to moisturizer base, samples were mixed to homogeneity and stored at 4C overnight. C57 black six mice at 8 weeks of age were anesthetized with 3% isoflurane by inhalation, were shaved, and underwent depilation at mid-scapular dorsal region of 2 cm×2 cm with a rosin mixture (Surgiwax, Ardell, Commerce, Calif.) to induce the synchronized adolescent first hair cycle. Moisturizer was applied daily at 0.2 cc per day for either LR9 treatment or control for a fourteen day period at n=4 per group. After 14 days application the treated skin segment was harvested en bloc and subdivided into three equal portions: a cranial portion, a left lateral portion and a right lateral portion. The cranial portion and the left lateral portion were fixed in 10% neutral buffered formalin for 12-16 hours, then rinsed in 70% ethanol and embedded in paraffin. The right lateral portion was snap frozen in OCT medium at the time of harvest and stored at −35C until use.
Paraffin-embedded specimens were sectioned at 4-6 microns, deparaffinized, and stained with a combination of Verhoeff elastica stain and the Masson trichrome stain for morphological assessment of follicle area and number. Frozen samples underwent random hair pulls to determine hair shaft length. All procedures and analyses were performed by blinded observers. […] Images were analyzed using Image Pro Plus software (Media Cybernetics, Silver Spring, Md.) to determine total cross-sectional follicle area, follicle number, or hair length. Mean and standard error were assessed using Statview (Abacus Concepts, Berkeley, Calif.), with comparisons made using ANOVA repeated measures and significance determined at 95% with post-hoc testing using Fisher PLSD or Scheffe F-test.

Take “(L-arg)-(L-arg)-(L-arg)-(L-arg)-(L-arg)-(L-arg)-(L-arg)-(L-arg)-(L-arg) [LR9]”: the “Mean Area” value in the test on human subjects (first of 3 participants) amounted to 7.745 sq. in. In addition, the “Mean Area” value with human subjects (second of 3 participants) came to 7.411 sq. in. The “Mean Area” value in the test on human subjects (third of 3 participants) was 7.911 sq. in. In the test with C57 black six mice (14 days topical), the “Number of follicles per cross-section, Mean” value is listed as 406.417. Further, in the test with C57 black six mice (14 days topical, 0.2 cc per day in Cetaphil moisturizer base, n=4, 1 pixel = 2.774 microns), the “Hair Shaft Length, Mean” value is recorded as 1612.424 pixels. Further, in the test on C57 black six mice (14 days topical, 1 square pixel = 7.69 square microns), the “Follicle Area (by total x-sectional area), Mean” value was found to be 53546.00 square pixels. In the test with C57 black six mice (14 days, LR9 vs. control), the “Follicle Area, Comparison anova (95) vs. control” value is given as “**”; the “Hair Shaft Length, Comparison anova (95) vs. control” value is given as “**”; the “Number of follicles per cross-section, Comparison anova (95) vs. control” value is reported as “**”. The “Hair growth as measured by hair shaft length, total follicle area, and number of hair follicles” value in the test with C57 black six mice (without any additional transdermal delivery platform) is listed as “statistically significantly enhance hair growth”.
